Laboratory results from PubChem BioAssay AID463203 (Broad Institute, 2010).
Calls of active or inactive are those of the source.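 How the source made its calls: active means more than half of replicate measurements showing over 20% loss of kinase signal relative to plate controls; inconclusive means some but at most half of replicates over 20% loss; inactive means no replicate over 20% signal loss.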

Target: Glycogen synthase kinase-3 alpha (Homo sapiens) (UniProt P49840)
Test: concentration-response blocking of human GSK3A – biochemical, luminescence, cell-free homogeneous, retest, dose response (AID 463203)
Details: GSK-3 alpha enzyme, ADP-Glo luminescence, 60 min

Sequence of Glycogen synthase kinase-3 alpha (Homo sapiens) (P49840 whole entry, looked up): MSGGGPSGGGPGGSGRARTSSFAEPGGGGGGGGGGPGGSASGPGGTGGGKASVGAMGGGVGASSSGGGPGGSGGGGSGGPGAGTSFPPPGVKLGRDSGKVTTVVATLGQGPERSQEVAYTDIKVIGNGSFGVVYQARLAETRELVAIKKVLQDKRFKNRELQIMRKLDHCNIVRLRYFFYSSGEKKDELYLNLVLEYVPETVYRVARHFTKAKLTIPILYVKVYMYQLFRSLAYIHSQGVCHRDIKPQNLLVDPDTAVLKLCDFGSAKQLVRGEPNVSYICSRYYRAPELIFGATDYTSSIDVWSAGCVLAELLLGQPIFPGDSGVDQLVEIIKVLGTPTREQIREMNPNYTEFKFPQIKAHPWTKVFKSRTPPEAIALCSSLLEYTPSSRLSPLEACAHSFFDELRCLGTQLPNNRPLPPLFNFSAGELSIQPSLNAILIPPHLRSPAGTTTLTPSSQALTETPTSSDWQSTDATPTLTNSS

Cn1c(=O)c2[nH]c(NCC3CCCO3)nc2n(-c2ccccc2)c1=O (stereo unspecified)
AC50: 11 µM

NCCNc1cc(N2CCCC2)ccc1[N+](=O)[O-]
AC50: > 30 µM (inactive)

CSc1nnc([C@@H](N)Cc2c[nH]c3ccccc23)o1
AC50: > 30 µM (inactive)

Nc1nc(-c2ccccc2)cc(-c2ccccc2O)n1
AC50: 25.4 µM

COc1ccc(S(=O)(=O)N[C@@H](CC(C)C)C(=O)O)cc1
AC50: > 30 µM (inactive)

O=c1[nH]c(=O)n(C2CCCCCC2)c(O)c1C=NCCCN1CCOCC1
AC50: 14.4 µM

N#CC1=C(N)Oc2n[nH]c(-c3cccnc3)c2C1c1cc(F)ccc1F (stereo unspecified)
AC50: > 30 µM (inactive)

Fc1ccc(Nc2ncnc3sccc23)cc1
AC50: > 30 µM (inactive)

CCOc1ccc2[nH]cc(S(=O)(=O)c3ccc(C)cc3)c(=O)c2c1
AC50: > 30 µM (inactive)

COc1ccc(S(=O)(=O)NC(C)C(=O)O)cc1 (stereo unspecified)
AC50: > 30 µM (inactive)

Cc1ccc(NC(=O)c2cc(-n3cnnc3)ccc2Cl)c(C)c1
AC50: > 30 µM (inactive)

CCOC(=O)N1CCC(N2CCN(S(=O)(=O)c3ccc(C)cc3)CC2)CC1
AC50: > 30 µM (inactive)

O=C(O)COc1c(Cl)cc(/C=C2/NC(=O)NC2=O)cc1Br
AC50: 23 µM

CN1CCN(c2ccccc2NC(=O)c2ccc(-c3ccccc3[N+](=O)[O-])o2)CC1
AC50: 4.6 µM

Cc1ccc(-c2cn3cccnc3n2)cc1NC(=O)c1ccc(Br)o1
AC50: > 30 µM (inactive)

COc1ccc(NC(=O)Nc2ccc(Br)c(C)c2)cc1
AC50: > 30 µM (inactive)

COc1ccc(S(=O)(=O)N[C@H](C(=O)O)C(C)C)cc1
AC50: > 30 µM (inactive)

Cc1oc2ccc(O)cc2c1C(=O)c1ccc(F)cc1
AC50: > 30 µM (inactive)

CCOc1ccc2ncc(S(=O)(=O)c3ccccc3)c(N3CCN(c4ccccc4)CC3)c2c1
AC50: > 30 µM (inactive)

COc1ccc(/C=N/NC(=O)c2nnn(-c3nonc3N)c2CN(C)c2ccccc2)cc1
AC50: > 30 µM (inactive)

O=C(CCN1CCOCC1)Nc1cccc(Br)c1
AC50: > 30 µM (inactive)

Nc1cc(C(=O)O)c(N)c2c1C(=O)c1ccccc1C2=O
AC50: 7.46 µM

COc1ccc(OCC(=O)N2CCN(c3nnc(-c4ccc(C)cc4)c4ccccc34)CC2)cc1
AC50: > 30 µM (inactive)

CCn1ncc([N+](=O)[O-])c1C(=O)N1CCCC1
AC50: > 30 µM (inactive)

CN1CCc2nc3sc(C(=O)NC4CC4)c(N)c3cc2C1
AC50: > 30 µM (inactive)

O=C(COC(=O)C1CCC1)c1c[nH]c2ccccc12
AC50: > 30 µM (inactive)

CCOC(=O)c1nc(NCc2cccnc2)c2ccccc2n1
AC50: > 30 µM (inactive)

O=c1[nH]c2c(s1)C(c1cccnc1)C1C3CCC(C3)C1S2 (stereo unspecified)
AC50: 8.66 µM

CCC(C)[C@H](NC(=O)NCc1ccccc1Cl)C(=O)OC (stereo partly specified)
AC50: > 30 µM (inactive)

O=C(NC(=S)NCC1COc2ccccc2O1)c1ccccc1 (stereo unspecified)
AC50: > 30 µM (inactive)

O=C1c2ccccc2C(=O)c2c(Nc3ccc(CCO)cc3)ccc(O)c21
AC50: > 30 µM (inactive)

CCOC(=O)CCc1c(C)c2ccc(O)cc2oc1=O
AC50: > 30 µM (inactive)

O=C1Nc2ccccc2Sc2ccccc21
AC50: > 30 µM (inactive)

CCc1cc2c(NCc3ccco3)ncnc2s1
AC50: > 30 µM (inactive)

COc1ccc(Nc2ccc(S(=O)(=O)N3CCCCC3)cc2[N+](=O)[O-])cc1OC
AC50: > 30 µM (inactive)

CCOC(=O)c1cccc(NC(=O)C2CCCN2S(=O)(=O)c2cccc3cccnc23)c1 (stereo unspecified)
AC50: 29.5 µM

Clc1ccc(N/N=C/c2ccncc2)cc1Cl
AC50: > 30 µM (inactive)

COC(=O)C1=C(C)Nc2ncnn2C1c1ccccn1 (stereo unspecified)
AC50: > 30 µM (inactive)

FC(F)(F)c1cnc(N/N=C/c2ccncc2)c(Cl)c1
AC50: > 30 µM (inactive)

Cc1noc(C)c1CSc1nnc(-c2ccccc2)o1
AC50: > 30 µM (inactive)

O=C1/C(=C/c2ccc(Br)cc2)Oc2cc(O)ccc21
AC50: > 30 µM (inactive)

CC(=O)Nc1ccc(S(=O)(=O)NC(C)c2ccncc2)cc1 (stereo unspecified)
AC50: > 30 µM (inactive)

O=C(CSc1nc2ccccc2c(=O)n1-c1ccc(F)cc1F)c1c[nH]c2ccccc12
AC50: > 30 µM (inactive)

CCCCCCCNc1nc(Cl)nc(NCCO)n1
AC50: > 30 µM (inactive)

Cc1ccc(S(=O)(=O)N2C(=O)/C(=C3\SC(=S)NC3=O)c3ccccc32)cc1
AC50: > 30 µM (inactive)

CC(C)(C)CNc1cc(N2CCCC2)ccc1[N+](=O)[O-]
AC50: > 30 µM (inactive)

Cc1c(CCC(=O)O)c(=O)oc2cc(O)ccc12
AC50: > 30 µM (inactive)

Cc1ccc(C(=O)N/N=c2\oc3ccccc3cc2C(N)=O)cc1
AC50: > 30 µM (inactive)

CCSc1nc2sc3c(c2c(=O)n1-c1ccccc1C)CCN(C)C3
AC50: > 30 µM (inactive)

O=c1c2ccccc2oc2cc(NCCCn3ccnc3)ccc12
AC50: > 30 µM (inactive)

CCOc1ccccc1C1N(c2ccc(OC)cc2)C(=O)C2CCCN21 (stereo unspecified)
AC50: > 30 µM (inactive)

COC(=O)C1=C(C)N(CC(C)C)C(=O)/C1=C\c1cccs1
AC50: > 30 µM (inactive)

COc1ccccc1N=c1oc2cc(O)ccc2cc1C(N)=O
AC50: 4.68 µM

O=C1CC(/C=C/c2ccncc2)=Nc2ccccc2N1
AC50: 13.1 µM

CC(=O)c1c(O)ccc2c(-c3ccccc3)cc(=O)oc12
AC50: > 30 µM (inactive)

COC(=O)[C@H]1[C@H](CCc2ccccc2)NC(=O)N(Cc2ccccc2)[C@@H]1C
AC50: > 30 µM (inactive)

CC(=O)c1cnc(Nc2ccccc2)s1
AC50: 20.2 µM

CCCOc1ccccc1NC(=O)Nc1ccccc1Cl
AC50: > 30 µM (inactive)

Cc1cnn(C(=O)c2ccccc2Br)c1
AC50: > 30 µM (inactive)

C=CCN1C(=O)/C(=C\c2ccco2)C(C(=O)OC)=C1C
AC50: > 30 µM (inactive)

COc1ccc(N=Nc2c(C)n[nH]c2C)cc1
AC50: > 30 µM (inactive)

N#CCCN(Cc1ccccc1)S(=O)(=O)c1cccs1
AC50: > 30 µM (inactive)

COc1ccc(-c2ncncc2-c2ccc(OC)c(OC)c2)c(O)c1
AC50: 10.3 µM

COc1ccccc1-n1c(O)c(C=NCCCn2ccnc2)c(=O)[nH]c1=O
AC50: 18.1 µM

COc1ccc(CC(=O)Oc2cc(C)ccc2C)cc1
AC50: > 30 µM (inactive)

O=C(Cc1c(F)cccc1Cl)Nc1ncc([N+](=O)[O-])s1
AC50: 2.43 µM

N#Cc1sc2nc(-c3cccs3)cc(-c3ccccc3)c2c1N
AC50: > 30 µM (inactive)

Oc1cc(O)cc(-c2cc3ccc(O)cc3o2)c1
AC50: > 30 µM (inactive)

CN(C)c1ccc(/C=N/NC(=O)c2nnn(-c3nonc3N)c2CN(C)c2ccccc2)cc1
AC50: > 30 µM (inactive)

Cc1c(CN(C)C)c2c(n1Cc1ccccc1)C(=O)c1ccccc1-2
AC50: > 30 µM (inactive)

COc1ccc(C2C3(C#N)C(N)=NC(OC)(OC)C23C#N)cc1 (stereo unspecified)
AC50: > 30 µM (inactive)

Cc1cc(C(C#N)c2ccccc2)n2ncnc2n1 (stereo unspecified)
AC50: 3.35 µM

CCSc1nnc2ccc(-c3cccs3)nn12
AC50: > 30 µM (inactive)

Cc1csc(NC(=O)/C=C/c2ccc3c(c2)OCO3)n1
AC50: > 30 µM (inactive)

CC(=S)/C=C1\Sc2ccccc2N1C
AC50: > 30 µM (inactive)

CN1CCc2nc3sc(C#N)c(N)c3c(-c3cccs3)c2C1
AC50: 0.675 µM

O=C(Nc1c(C(=O)C2CC2)oc2ccccc12)c1ccc(Cl)cc1
AC50: > 30 µM (inactive)

Cc1noc(C)c1COc1ccc2ccc(=O)oc2c1
AC50: > 30 µM (inactive)

CC(C)Cn1nc(NC(=O)C2CCCO2)c2cc3ccccc3nc21 (stereo unspecified)
AC50: > 30 µM (inactive)

CC(C)CCSc1cc(NCCO)c([N+](=O)[O-])c2nonc12
AC50: > 30 µM (inactive)

O=c1[nH]nnc2c1sc1nc(N3CCOCC3)c3c(c12)CCCC3
AC50: 13.4 µM

O=C(CSc1ncccc1-c1nc2ccccc2[nH]1)NCc1ccco1
AC50: > 30 µM (inactive)

Cc1ccc(CSCCNC(=O)c2ccc(C)cc2)cc1
AC50: > 30 µM (inactive)

Fc1ccccc1-c1n[nH]c(=S)n1/N=C/c1c[nH]c2ccccc12
AC50: 22.5 µM

c1ccc(Cn2nc(-c3ccccc3)nc2-c2ccccc2)cc1
AC50: > 30 µM (inactive)

Cc1ccc(N(Cc2ccc([N+](=O)[O-])cc2)C(=O)c2ccco2)cc1
AC50: > 30 µM (inactive)

CCn1c(SCc2nc3sc(C(=O)O)c(C)c3c(=O)[nH]2)nc2ccccc21
AC50: 10.8 µM

COc1ccc(/C=N\NC(=O)c2ccccc2Br)cc1COc1ccccc1
AC50: > 30 µM (inactive)

COC(=O)c1ccc(CSc2n[nH]c(=S)s2)o1
AC50: > 30 µM (inactive)

CC(C)c1c(C(=O)N/N=C/c2ccsc2)nnn1-c1nonc1N
AC50: > 30 µM (inactive)

COc1ccc(C2c3sc(=O)[nH]c3SC3C4CCC(C4)C23)cc1OC (stereo unspecified)
AC50: 1.92 µM

COc1ccc(Cn2nnc(C(=O)Nc3ccc(F)cc3)c2N)cc1
AC50: > 30 µM (inactive)

CCCCn1c(SCC(=O)Nc2sc3c(c2C(N)=O)CCC3)nnc1-c1ccccc1
AC50: > 30 µM (inactive)

CCN(CC)c1ccc(C2C(C(=O)OC(C)C)C(=O)CC(C)(O)C2C(=O)OC(C)C)cc1 (stereo unspecified)
AC50: > 30 µM (inactive)

CCNc1cc(N2CCCC2)ccc1[N+](=O)[O-]
AC50: > 30 µM (inactive)

Cc1c(O)ccc2c3c(c(=O)oc12)CCC(C)C3 (stereo unspecified)
AC50: > 30 µM (inactive)

CCN1CCN(Cc2c(O)ccc3c2O/C(=C\C=C\c2ccccc2OC)C3=O)CC1
AC50: > 30 µM (inactive)

Cc1nnc(N/N=C/c2ccc(-c3ccc(Br)cc3)o2)n1N
AC50: 15.4 µM

CCOC(=O)c1ccc(N2C=C(C(=O)OC)C(c3ccc(OC)c(O)c3)C(C(=O)OC)=C2)cc1
AC50: > 30 µM (inactive)

O=C(Nc1ccccc1-c1nnc(SCc2ccccc2Cl)o1)c1ccccc1
AC50: > 30 µM (inactive)

O=S(=O)(Nc1ccc(-c2nnc(SCc3ccc(Cl)cc3)o2)cc1)c1ccccc1
AC50: > 30 µM (inactive)

Cc1ccc(CNc2nc(N)c([N+](=O)[O-])c(NCc3ccccc3)n2)cc1
AC50: > 30 µM (inactive)

CCSc1nc2c(c(=O)[nH]1)C(c1ccccn1)C1=C(CC(C)(C)CC1=O)N2 (stereo unspecified)
AC50: > 30 µM (inactive)

O=c1c(OC2OC(CO)C(O)C(O)C2O)c(-c2ccc(O)c(O)c2)oc2cc(O)cc(O)c12 (stereo unspecified)
AC50: > 30 µM (inactive)

Cc1ccc(CSc2nnc(-c3cccnc3)o2)cc1
AC50: > 30 µM (inactive)

Cc1nc(C)c(C(=O)Nc2ncc([N+](=O)[O-])s2)o1
AC50: > 30 µM (inactive)
